Columns and labels:
Test in all cases: Off-target lipid hydrolase assay, Expi293 lysates
Format in all cases: biochemical
PNPLA6 = molecular target: T1, PNPLA6 (Homo sapiens, UniProt Q8IY17); conditions: NG-497 100 µM, substrate LPC
T1 construct: made in house; host or cells: Expi293 cells, lysate
Experimental: (§1) Fig. S3: Investigation of off-target effects of NG-497 on structurally and functionally related lipid hydrolases. (a) […]
(§2) NG-497, inhibited PNPLA1/CGI-58-dependent ω-O-acylceramide formation. (b-h) Enzymes were overexpressed in Expi293 cells and cell lysates were used as source of enzymatic activity. Cell lysates were incubated with the indicated substrates 1-oleoyl phosphatidylcholine (LPC), di-oleoyl phosphatidic acid (PA), di-octanoyl phosphatidylglycerol (PG), or para-nitrophenylvalerate (pNPV). Experiments were performed in the presence or absence of NG-497 (100 µM) and the formation of reaction products was monitored. Cell lysates of LacZ-transfected cells were used to detect basal cellular activity. As positive controls, enzymes were inactivated with lipase inhibitors Orlistat (40 µM), R-BEL (10 µM), KLH-45 (20 nM), HSLi (10 µM), or PMSF (10µM).
(§3) Data were calculated relative to the basal activity detected in LacZ-transfected controls. […]
(§4) LPL activity was inhibited using an anti-LPL antibody. All data are presented as mean ± S.D. Statistical significance was determined via ANOVA followed by Bonferroni post hoc test ( ***, p < 0.001).
(§5) (1 picture or pasted object on this page, not shown here) […]
(§6) 2-mercaptoethanol, 4% sodium dodecyl sulfate, 20% glycerin, bromophenol blue) at 98°C for 10 min. For detection of protein expression, anti-Xpress (Thermo Fisher Scientific #R910-25), anti-mouse-HRP Trueblot (Rockland #18-8817-33), and anti-FLAG HRP (MiliporeSigma #A8592) antibodies were used.
(§7) Analysis of toxicity in HepG2 hepatocytes. For LDH-based viability assays, HepG2 cells were seeded in 96-well plates in DMEM (Gibco) containing 100 IU/ml penicillin, 100 IU/ml streptomycin (MilliporeSigma), and 3% heat-inactivated FCS. […]
(§8) Serum stability of ATGL inhibitors. Inhibitors were incubated in 200 µl human serum for 0 and 3 h at 37°C and extracted in 1 ml MTBE/methanol (3/1, v/v) containing acetic acid/butylated hydroxytoluene (500nM). The extraction mixture was shaken at 1,400 x rpm for 1 h at RT and centrifuged for 10 min at 13,000 x rpm for phase separation. 700 µl of the upper, organic phase were collected, dried under a stream of nitrogen, and lipids resolved in 200 µl methanol/isopropanol/H2O (6/3/1), for UPLC- […]
(§9) Chromatographic separation was modified after Knittelfelder et al.2 using an AQUITY UPLC system (Waters Corporation, Milford, USA) equipped with a ZORBAX Eclipse XDB-C18- column (3 × 30 mm, 1.8 µm; Agilent Technologies, Santa Clara, USA) starting a 15 min gradient with 80% solvent A (water/methanol, 1/1, v/v) and 20% solvent B (2-propanol). Both solvents contained ammonium acetate (10 mM), formic acid (0.1 vol%) and phosphoric acid (8 µM) and the column was kept at 50°C. […]

PNPLA7 = molecular target: T2, PNPLA7 (Homo sapiens, UniProt Q6ZV29); conditions: NG-497 100 µM, substrate LPC
T2 construct: made in house; host or cells: Expi293 cells, lysate
T2 sequence (Q6ZV29 whole entry): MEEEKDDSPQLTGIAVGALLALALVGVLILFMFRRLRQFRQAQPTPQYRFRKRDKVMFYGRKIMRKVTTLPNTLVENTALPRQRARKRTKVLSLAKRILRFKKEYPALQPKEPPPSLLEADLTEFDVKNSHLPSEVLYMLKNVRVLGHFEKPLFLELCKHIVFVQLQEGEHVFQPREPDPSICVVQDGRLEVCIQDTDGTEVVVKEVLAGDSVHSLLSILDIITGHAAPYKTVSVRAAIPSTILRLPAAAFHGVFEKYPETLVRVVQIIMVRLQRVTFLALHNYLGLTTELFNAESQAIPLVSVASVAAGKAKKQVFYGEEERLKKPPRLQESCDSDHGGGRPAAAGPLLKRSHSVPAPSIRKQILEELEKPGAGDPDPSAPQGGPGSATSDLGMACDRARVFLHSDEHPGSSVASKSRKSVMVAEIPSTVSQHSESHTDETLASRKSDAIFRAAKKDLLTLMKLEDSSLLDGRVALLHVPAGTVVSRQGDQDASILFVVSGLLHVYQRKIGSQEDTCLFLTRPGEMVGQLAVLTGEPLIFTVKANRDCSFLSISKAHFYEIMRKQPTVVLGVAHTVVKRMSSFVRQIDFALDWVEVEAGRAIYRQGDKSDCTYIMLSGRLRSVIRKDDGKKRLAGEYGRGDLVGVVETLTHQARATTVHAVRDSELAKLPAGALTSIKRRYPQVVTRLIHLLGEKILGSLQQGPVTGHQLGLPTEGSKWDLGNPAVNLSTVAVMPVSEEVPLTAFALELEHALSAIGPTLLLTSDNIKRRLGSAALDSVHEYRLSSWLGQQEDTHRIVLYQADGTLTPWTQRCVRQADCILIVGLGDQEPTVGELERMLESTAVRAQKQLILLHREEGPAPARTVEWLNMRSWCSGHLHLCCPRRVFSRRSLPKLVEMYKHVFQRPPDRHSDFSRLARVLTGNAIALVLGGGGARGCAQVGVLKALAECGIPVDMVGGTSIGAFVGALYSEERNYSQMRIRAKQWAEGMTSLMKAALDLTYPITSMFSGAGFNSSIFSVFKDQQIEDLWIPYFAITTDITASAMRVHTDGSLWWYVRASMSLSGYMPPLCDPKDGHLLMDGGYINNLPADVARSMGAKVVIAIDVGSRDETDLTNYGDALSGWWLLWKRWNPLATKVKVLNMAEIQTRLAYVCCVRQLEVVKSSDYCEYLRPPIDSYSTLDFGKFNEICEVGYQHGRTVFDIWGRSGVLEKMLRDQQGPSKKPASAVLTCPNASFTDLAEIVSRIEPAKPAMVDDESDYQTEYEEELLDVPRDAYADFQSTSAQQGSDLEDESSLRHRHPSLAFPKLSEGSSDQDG
Experimental: as §1, §2, §3, §4, §5, §6, §7, §8, §9

PNPLA8 = molecular target: T3, PNPLA8 (Homo sapiens, UniProt Q9NP80); conditions: NG-497 100 µM, substrate PA
T3 construct: made in house; host or cells: Expi293 cells, lysate
T3 sequence (Q9NP80 whole entry): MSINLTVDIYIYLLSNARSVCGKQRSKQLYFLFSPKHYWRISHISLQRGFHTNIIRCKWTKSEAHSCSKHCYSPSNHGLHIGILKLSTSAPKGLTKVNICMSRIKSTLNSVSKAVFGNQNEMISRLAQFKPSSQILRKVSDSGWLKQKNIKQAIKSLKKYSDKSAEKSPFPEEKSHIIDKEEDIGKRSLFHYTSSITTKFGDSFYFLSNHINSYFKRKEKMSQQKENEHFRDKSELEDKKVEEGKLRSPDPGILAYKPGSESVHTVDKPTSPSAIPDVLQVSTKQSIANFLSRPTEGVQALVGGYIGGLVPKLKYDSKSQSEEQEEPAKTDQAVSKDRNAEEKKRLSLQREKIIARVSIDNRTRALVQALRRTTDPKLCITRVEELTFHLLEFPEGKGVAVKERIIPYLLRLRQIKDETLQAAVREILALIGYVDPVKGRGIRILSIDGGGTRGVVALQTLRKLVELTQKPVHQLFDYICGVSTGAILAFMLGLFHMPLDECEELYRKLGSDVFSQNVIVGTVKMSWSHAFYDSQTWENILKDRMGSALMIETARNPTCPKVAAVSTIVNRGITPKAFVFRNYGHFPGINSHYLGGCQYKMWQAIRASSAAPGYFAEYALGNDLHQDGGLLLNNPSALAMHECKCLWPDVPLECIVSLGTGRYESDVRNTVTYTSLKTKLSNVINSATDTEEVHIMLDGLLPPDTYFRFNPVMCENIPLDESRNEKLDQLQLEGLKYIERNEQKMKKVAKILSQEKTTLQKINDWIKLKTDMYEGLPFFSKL
Experimental: as §1, §2, §3, §4, §5, §6, §7, §8, §9

PNPLA9 = molecular target: T4, PNPLA9 (Homo sapiens, UniProt O60733); conditions: NG-497 100 µM, substrate PG
T4 construct: made in house; host or cells: Expi293 cells, lysate
T4 sequence (O60733 whole entry): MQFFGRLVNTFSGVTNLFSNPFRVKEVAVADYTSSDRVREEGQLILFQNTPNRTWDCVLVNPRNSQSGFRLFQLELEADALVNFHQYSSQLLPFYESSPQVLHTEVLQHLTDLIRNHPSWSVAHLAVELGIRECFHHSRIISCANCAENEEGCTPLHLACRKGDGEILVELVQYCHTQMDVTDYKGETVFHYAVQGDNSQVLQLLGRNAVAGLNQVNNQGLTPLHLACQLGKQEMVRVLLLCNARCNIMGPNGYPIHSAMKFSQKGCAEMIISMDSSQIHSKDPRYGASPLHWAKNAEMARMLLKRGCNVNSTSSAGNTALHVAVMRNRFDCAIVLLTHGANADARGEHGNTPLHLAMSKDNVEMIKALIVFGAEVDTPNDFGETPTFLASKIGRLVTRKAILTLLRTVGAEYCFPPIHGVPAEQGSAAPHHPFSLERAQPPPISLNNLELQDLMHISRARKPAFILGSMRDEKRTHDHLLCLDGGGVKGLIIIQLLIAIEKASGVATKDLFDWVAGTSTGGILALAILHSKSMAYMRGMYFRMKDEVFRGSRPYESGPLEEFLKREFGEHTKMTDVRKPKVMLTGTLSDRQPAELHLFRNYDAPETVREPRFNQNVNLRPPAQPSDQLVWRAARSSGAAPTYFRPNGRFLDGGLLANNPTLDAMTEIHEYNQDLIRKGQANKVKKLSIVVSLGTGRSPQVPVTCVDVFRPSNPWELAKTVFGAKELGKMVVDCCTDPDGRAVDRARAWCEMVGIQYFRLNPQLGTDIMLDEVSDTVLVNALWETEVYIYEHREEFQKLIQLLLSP
Experimental: as §1, §2, §3, §4, §5, §6, §7, §8, §9

T1 sequence (Q8IY17 whole entry): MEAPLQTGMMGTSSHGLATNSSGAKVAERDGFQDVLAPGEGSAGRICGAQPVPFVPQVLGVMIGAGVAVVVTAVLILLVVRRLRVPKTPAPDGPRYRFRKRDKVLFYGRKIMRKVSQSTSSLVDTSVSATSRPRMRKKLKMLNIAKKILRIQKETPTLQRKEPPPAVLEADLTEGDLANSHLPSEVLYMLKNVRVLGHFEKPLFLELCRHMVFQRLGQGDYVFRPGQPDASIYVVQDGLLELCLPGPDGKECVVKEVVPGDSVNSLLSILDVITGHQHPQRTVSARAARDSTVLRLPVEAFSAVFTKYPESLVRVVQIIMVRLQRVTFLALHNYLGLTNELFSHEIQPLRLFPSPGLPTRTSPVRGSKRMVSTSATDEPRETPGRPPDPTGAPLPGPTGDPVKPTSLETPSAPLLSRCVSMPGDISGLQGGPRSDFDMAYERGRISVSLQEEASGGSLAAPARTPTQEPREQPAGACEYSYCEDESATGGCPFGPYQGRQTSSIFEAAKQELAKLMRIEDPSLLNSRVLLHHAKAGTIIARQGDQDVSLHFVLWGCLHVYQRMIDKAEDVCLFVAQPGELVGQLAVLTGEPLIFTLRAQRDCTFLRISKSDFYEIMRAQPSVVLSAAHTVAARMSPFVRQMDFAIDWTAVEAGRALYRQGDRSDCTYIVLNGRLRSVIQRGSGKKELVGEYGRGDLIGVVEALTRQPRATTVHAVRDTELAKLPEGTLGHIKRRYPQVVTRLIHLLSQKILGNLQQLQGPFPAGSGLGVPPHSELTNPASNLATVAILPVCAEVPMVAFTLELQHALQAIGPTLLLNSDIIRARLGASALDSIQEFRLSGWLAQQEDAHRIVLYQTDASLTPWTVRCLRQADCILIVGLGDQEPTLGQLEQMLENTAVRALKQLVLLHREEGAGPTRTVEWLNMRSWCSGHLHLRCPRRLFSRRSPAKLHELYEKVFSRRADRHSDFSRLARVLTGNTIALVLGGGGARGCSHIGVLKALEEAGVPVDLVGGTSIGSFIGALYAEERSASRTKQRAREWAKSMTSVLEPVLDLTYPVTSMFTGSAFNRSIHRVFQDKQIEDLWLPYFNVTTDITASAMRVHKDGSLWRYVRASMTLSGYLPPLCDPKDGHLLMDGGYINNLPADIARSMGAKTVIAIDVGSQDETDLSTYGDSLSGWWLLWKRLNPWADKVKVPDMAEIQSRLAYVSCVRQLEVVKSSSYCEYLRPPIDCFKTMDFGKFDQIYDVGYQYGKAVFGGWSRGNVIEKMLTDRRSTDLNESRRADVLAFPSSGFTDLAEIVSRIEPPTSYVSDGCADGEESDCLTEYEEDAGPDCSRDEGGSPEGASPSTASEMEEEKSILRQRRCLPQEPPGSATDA

CCOc1ccc(-c2cc(OC)cc(C(=O)OC(C)C)n2)cc1 [NG-497]
did not observe inhibition: inhibition of PNPLA6 (PNPLA6) | inhibition of PNPLA7 (PNPLA7) | inhibition of PNPLA8 (PNPLA8) | inhibition of PNPLA9 (PNPLA9)
